In brackets after ≈: the same amount, converted by molar mass. Activity calls are given as the source filed them. The calls are words filed in the database; no cut-off is given here.
What was measured:
[1] = system: Rattus norvegicus; assay: Antidepressant activity in Albino rat assessed as immobility time at 100 mg/kg, ip by forced swimming test (reference value: 112.4 +/- 2.88 sec); type: functional; settings: route intraperitoneal
[2] = system: Rattus norvegicus; assay: Neurotoxicity in rat assessed as impair in motor coordination at 100 mg/kg, ip after 30 mins by rotarod test (reference value: 116.50 +/- 1.18 sec); type: toxicity, organism-based; set-up: dose 100 mg/kg, route intraperitoneal; settings: in vivo, 0.5 h
[3] = system: Aspergillus niger; assay: Antifungal activity against Aspergillus niger MTCC 281 after 72 hrs; type: functional
[4] = system: Aspergillus flavus; assay: Antifungal activity against Aspergillus flavus MTCC 277 after 72 hrs; type: functional; settings: for MIC: Aspergillus flavus, MTCC 277, 72 h
[5] = Antifungal activity against Monascus purpureus MTCC 369 after 72 hrs; type: functional
[6] = system: Penicillium citrinum; assay: Antifungal activity against Penicillium citrinum NCIM 768 after 72 hrs; type: functional
[7] = species: Rattus norvegicus; assay: Inhibition of MAO in rat brain homogenate at 0.0005 M using kynuramine as substrate by fluorimetry; type: tissue-based
[8] = species: Rattus norvegicus; settings: Brain, 5 uM
Description: Inhibition of MAO in rat brain homogenate at 5 uM using kynuramine as substrate by fluorimetry

[9] = system: Rattus norvegicus; assay: Antidepressant activity in Albino rat assessed as immobility time at 20 mg/kg, ip by forced swimming test (reference value: 112.4 +/- 2.88 sec); type: functional; settings: route intraperitoneal
[10] = species: Rattus norvegicus; assay: Neurotoxicity in rat assessed as impair in motor coordination at after 30 mins by rotarod test (reference value: 116.50 +/- 1.18 sec); type: toxicity, organism-based; settings: in vivo, 0.5 h
[11] = Penicillium citrinum, NCIM 768, 72 h
[12] = Aspergillus niger, MTCC 281, 72 h

Compound	Time [1] [s]	Time [2] [s]	MIC [3]	inhibition zone (IZ) [3]	inhibition zone (IZ) [4] [mm]	MIC [4] [µg/mL]	MIC [5]	inhibition zone (IZ) [5]	inhibition zone (IZ) [6]	MIC [6, 11] [µg/mL]	MIC [3, 12] [µg/mL]	inhibition [7] [%]	MIC [6]	inhibition [8] [%]	Time [9] [s]	Time [10] [s]
CCCCNCc1cc2cccc(C)c2nc1Cl	97.2	92.34	inactive	inactive	5	200 (≈ 761 µM)	inactive	inactive	5 mm	200 (≈ 761 µM)	–	–	–	–	–	–
OC(Cn1cncn1)(Cn1cncn1)c1ccc(F)cc1F [FLUCONAZOLE]	–	–	–	13.5 mm	14.5	6.25 (≈ 20.4 µM)	6.25 µg/mL (≈ 20.4 µM)	11 mm	12 mm	6.25 (≈ 20.4 µM)	6.25 (≈ 20.4 µM)	–	–	–	–	–
Cc1cccc2cc(CNCc3ccccc3)c(Cl)nc12	78.4	98.33	–	5.5 mm	6	12.5 (≈ 42.1 µM)	100 µg/mL (≈ 337 µM)	7 mm	6.5 mm	100 (≈ 337 µM)	12.5 (≈ 42.1 µM)	–	–	–	–	–
COc1ccc(NCc2cc3cccc(C)c3nc2Cl)cc1	–	–	–	6.5 mm	6.5	50 (≈ 160 µM)	100 µg/mL (≈ 320 µM)	5.5 mm	6.5 mm	100 (≈ 320 µM)	50 (≈ 160 µM)	–	–	–	–	–
Cc1cccc2cc(CNc3cccc(Cl)c3)c(Cl)nc12	76.2	97.83	–	5.5 mm	6	12.5 (≈ 39.4 µM)	50 µg/mL (≈ 158 µM)	6.5 mm	5.5 mm	25 (≈ 78.8 µM)	12.5 (≈ 39.4 µM)	26.8	–	–	–	–
Cc1cccc2cc(CNc3ccc([N+](=O)[O-])cc3)c(Cl)nc12	86.8	93.5	–	7 mm	6.5	100 (≈ 305 µM)	inactive	inactive	inactive	–	100 (≈ 305 µM)	–	inactive	–	–	–
Cc1cccc2cc(CNC3CCCCC3)c(Cl)nc12	76.6	97.17	–	5.5 mm	5.5	200 (≈ 692 µM)	inactive	inactive	5.5 mm	200 (≈ 692 µM)	200 (≈ 692 µM)	20.6	–	–	–	–
Cc1cccc2cc(CNc3ccccc3Cl)c(Cl)nc12	–	–	–	5.5 mm	6	50 (≈ 158 µM)	100 µg/mL (≈ 315 µM)	6.5 mm	6 mm	100 (≈ 315 µM)	50 (≈ 158 µM)	–	–	–	–	–
Cc1cccc2cc(CNc3ccc(F)c(Cl)c3)c(Cl)nc12	74.2	93.67	–	8.5 mm	8.5	12.5 (≈ 37.3 µM)	25 µg/mL (≈ 74.6 µM)	5.5 mm	6 mm	25 (≈ 74.6 µM)	12.5 (≈ 37.3 µM)	32.1	–	–	–	–
Cc1ccccc1NCc1cc2cccc(C)c2nc1Cl	–	–	–	6.5 mm	7	100 (≈ 337 µM)	inactive	inactive	inactive	–	100 (≈ 337 µM)	–	inactive	–	–	–
Cc1cccc2cc(CNc3ccc(Br)cc3)c(Cl)nc12	–	–	–	5.5 mm	6	25 (≈ 69.1 µM)	100 µg/mL (≈ 276 µM)	7 mm	6.5 mm	100 (≈ 276 µM)	25 (≈ 69.1 µM)	–	–	–	–	–
Cc1cccc2cc(CNc3ccccc3)c(Cl)nc12	103.2	100.33	–	6 mm	6.5	25 (≈ 88.4 µM)	100 µg/mL (≈ 354 µM)	7 mm	6 mm	100 (≈ 354 µM)	25 (≈ 88.4 µM)	–	–	–	–	–
N[C@@H]1C[C@H]1c1ccccc1.N[C@H]1C[C@@H]1c1ccccc1	–	–	–	–	–	–	–	–	–	–	–	–	–	91.6	–	–
Cc1cccc(NCc2cc3cccc(C)c3nc2Cl)c1	–	–	–	6 mm	5.5	100 (≈ 337 µM)	inactive	inactive	inactive	–	100 (≈ 337 µM)	–	inactive	–	–	–
Cc1cccc2cc(CNc3ccc(Cl)cc3)c(Cl)nc12	77.2	95.17	–	7.5 mm	6.5	12.5 (≈ 39.4 µM)	50 µg/mL (≈ 158 µM)	7 mm	6 mm	50 (≈ 158 µM)	12.5 (≈ 39.4 µM)	23.5	–	–	–	–
Cc1cccc2cc(CNc3ccc(F)cc3)c(Cl)nc12	80.4	91.33	–	6 mm	6	12.5 (≈ 41.6 µM)	50 µg/mL (≈ 166 µM)	8 mm	7 mm	50 (≈ 166 µM)	12.5 (≈ 41.6 µM)	19.6	–	–	–	–
CNCCC(Oc1ccc(C(F)(F)F)cc1)c1ccccc1 (stereo unspecified) [FLUOXETINE]	–	–	–	10.5 mm	–	6.25 (≈ 20.2 µM)	6.25 µg/mL (≈ 20.2 µM)	9 mm	8 mm	6.25 (≈ 20.2 µM)	6.25 (≈ 20.2 µM)	–	–	–	55.4	107.2
CN(C)CCCN1c2ccccc2CCc2ccc(Cl)cc21 [CLOMIPRAMINE]	–	–	–	–	–	–	–	–	–	–	–	–	–	–	63.4	110.83
Cc1cccc2cc(CNc3ccc(Cl)c(Cl)c3)c(Cl)nc12	73.6	90.83	–	8 mm	9	12.5 (≈ 35.5 µM)	50 µg/mL (≈ 142 µM)	8 mm	6.5 mm	25 (≈ 71.1 µM)	12.5 (≈ 35.5 µM)	35	–	–	–	–
Cc1ccc(NCc2cc3cccc(C)c3nc2Cl)cc1	96.6	96.5	–	6 mm	7	50 (≈ 168 µM)	100 µg/mL (≈ 337 µM)	7.5 mm	6 mm	100 (≈ 337 µM)	50 (≈ 168 µM)	–	–	–	–	–

Reference: ChEMBL document CHEMBL1667762, “Synthesis, antidepressant and antifungal evaluation of novel 2-chloro-8-methylquinoline amine derivatives” (Eur J Med Chem, 2011)
